Laboratory results from PMC10341893, “Motifs in Natural Products as Useful Scaffolds to Obtain Novel Benzo[d]imidazole-Based Cannabinoid Type 2 (CB2) Receptor Agonists” (International Journal of Molecular Sciences, 2023).
Where two headings read alike, the source gives them in different places.

What was measured:
hCB2 receptor [1] = target: T1, hCB2 receptor (Homo sapiens, UniProt P34972); assay: Single-dose radioligand displacement assay ([3H]WIN55212-2); assay type: binding; design: host or cells: CHO cells; conditions: membranes from recombinant CHO cells expressing human CB2, duplicate; for inhibition at 10 µM: read-out: Inhibition (%) of [3H]WIN55212-2 specific binding, 10 µM single dose; for Inhibition (%) of [3H]WIN55212-2 specific binding: 10 µM single dose
T1 sequence (P34972 whole entry): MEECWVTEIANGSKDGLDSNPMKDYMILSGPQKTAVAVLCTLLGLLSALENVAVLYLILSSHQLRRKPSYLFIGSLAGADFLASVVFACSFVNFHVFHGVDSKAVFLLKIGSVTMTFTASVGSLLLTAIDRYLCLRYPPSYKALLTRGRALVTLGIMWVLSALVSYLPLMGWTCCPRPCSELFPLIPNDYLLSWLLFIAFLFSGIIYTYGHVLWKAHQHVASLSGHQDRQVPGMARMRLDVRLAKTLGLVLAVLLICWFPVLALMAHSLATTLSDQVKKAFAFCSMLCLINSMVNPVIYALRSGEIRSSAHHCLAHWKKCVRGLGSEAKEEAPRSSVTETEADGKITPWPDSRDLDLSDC
Description: To assess ligand binding to CB2 receptors, radioligand displacement assay at a single dose (10 μM) was performed in membranes obtained from recombinant CHO cells expressing human CB2 receptors (Eurofins Cerep SA, France). Out of 26 compounds, more than 50% of the molecules presented >50% displacement, while 20% of the compounds (5, 6, 16, 19, 22) presented >80% displacement of radioligand binding at a 10 μM dose. Compounds 5, 6, 16, 19, and 22 were further tested for CB2 receptor activation (agonist activity, see below) and CB2/CB1 selectivity.
All membrane preparations for these studies were generated at Cerep Inc. according to standard protocols. Duplicate determinations were performed for each test compound. Compounds were dissolved in DMSO to generate a stock solution. Radioligand binding methods were adapted from Munro et al..

hCB2 receptor [2] = target: T1, hCB2 receptor; assay: CB2 receptor binding assay ([3H]-CP-55,940 displacement, HEK cell membranes); design: expressed in transfected cells; host or cells: HEK cells; conditions: for Ki (CB1)/Ki (CB2): selectivity ratio CB2 over CB1
Description: (§1) To assess the compound selectivity between CB1 and CB2 receptors, binding constants were determined through a radioligand displacement assay by testing concentration–response curves for compounds 5, 6, 16, 19, and 22. As shown in Figure 4 and summarized in Table 4, three of the tested compounds (5, 19, and 22) presented moderate binding affinity in a low micromolar range to both CB1 and CB2 receptors.
(§2) CB1 and CB2 receptor binding assays were performed exactly as previously described. […] Displacement curves were performed by incubating [^3H]-CP-55 940 (90 min, 30 °C) with increasing concentrations of compounds (10 nM−10 μM). Ki values were calculated by applying the Cheng−Prusoff equation to the IC50 values (obtained by GraphPad, Prism Software 9.5) for the displacement of the bound radioligand by compounds.

hCB2 receptor [3] = target: T1, hCB2 receptor; assay: cAMP accumulation assay (forskolin-stimulated, CHO cells expressing hCB2); assay type: cell-based; conditions: for agonist activity at CB2 (cAMP accumulation): recombinant cells expressing CB2 receptors
Description: Compounds were further characterized through in vitro functional assays by measuring the variation in forskolin-induced cAMP accumulation (Eurofins Cerep services). The tested compounds diminished the accumulation of cyclic AMP, indicating activity as agonists (Figure 3).
In vitro pharmacology assay for human CB2 agonist effect in CHO cells was performed by Eurofins Cerep (Celle-Lévescault, France). Five compounds were tested at several concentrations for EC50 determination. […] CHO cells stably expressing hCB2 receptor were used to determine agonist effect of compounds, based on the measurement of cAMP level. Assay protocol is adapted from Felder et al..

human recombinant CB1R = target: T2, human recombinant CB1R (Homo sapiens, UniProt P21554); assay: CB1 receptor binding assay ([3H]-CP-55,940 displacement, HEK cell membranes)
T2 construct: expressed in transfected cells; host or cells: HEK cells
T2 sequence (P21554 whole entry): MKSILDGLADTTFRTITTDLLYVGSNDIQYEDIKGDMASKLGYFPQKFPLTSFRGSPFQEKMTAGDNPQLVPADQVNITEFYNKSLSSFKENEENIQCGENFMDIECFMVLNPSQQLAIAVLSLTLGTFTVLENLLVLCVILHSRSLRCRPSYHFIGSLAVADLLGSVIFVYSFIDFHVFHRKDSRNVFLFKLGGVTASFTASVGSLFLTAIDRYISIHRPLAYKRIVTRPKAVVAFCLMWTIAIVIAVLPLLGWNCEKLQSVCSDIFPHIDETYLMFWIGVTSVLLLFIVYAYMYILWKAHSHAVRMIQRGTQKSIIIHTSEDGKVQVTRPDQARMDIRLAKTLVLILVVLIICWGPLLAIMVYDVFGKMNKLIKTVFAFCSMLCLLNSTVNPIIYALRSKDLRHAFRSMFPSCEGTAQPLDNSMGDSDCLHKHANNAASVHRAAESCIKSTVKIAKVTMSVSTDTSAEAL
Description: as §1, §2

[4] = [3H]-CP-55,940 displacement, means ± SD of 3 independent experiments in duplicate, read-out: Ki CB2
[5] = [3H]-CP-55,940 displacement, means ± SD of 3 independent experiments in duplicate, read-out: Ki CB1

| Structure (SMILES) | inhibition at 10 µM (hCB2 receptor [1]) | Inhibition (%) of [3H]WIN55212-2 specific binding (hCB2 receptor [1]) | other results |
| --- | --- | --- | --- |
| CCn1c(SC2CC(C)CCC2C(C)C)nc2ccccc21 (stereo not shown) [Compound 3, 1-ethyl-2-((2-isopropyl-5-methylcyclohexyl)thio)-1H-benzo[d]imidazole] | 69% | – | – |
| CCCCCCC(C)(C)c1cc(OC)cc(Oc2nc3ccccc3n2Cc2cccc3ccccc23)c1 [Compound 24, 2-(3-methoxy-5-(2-methyloctan-2-yl)phenoxy)-1-(naphthalen-1-ylmethyl)-1H-benzo[d]imidazole] | 32% | – | – |
| CC(C)=CCC/C(C)=C/CSc1nc2ccccc2n1Cc1ccccc1 [Compound 8, (E)-1-benzyl-2-((3,7-dimethylocta-2,6-dien-1-yl)thio)-1H-benzo[d]imidazole] | – | 71% | – |
| CC1CCC(C(C)C)C(Sc2nc3ccccc3n2Cc2ccccc2)C1 (stereo not shown) [Compound 2, 1-benzyl-2-((2-isopropyl-5-methylcyclohexyl)thio)-1H-benzo[d]imidazole] | 72% | – | – |
| CC1CCC(C(C)C)C(Oc2nc3ccccc3n2Cc2ccccc2)C1 (stereo not shown) [Compound 5, 1-benzyl-2-((2-isopropyl-5-methylcyclohexyl)oxy)-1H-benzo[d]imidazole] | > 80% | 90% | Ki (hCB2 receptor [2]): 400 ± 80 nM; Ki (CB1)/Ki (CB2) (hCB2 receptor [2]): 2.3; EC50 (hCB2 receptor [3]): 14 nM; agonist activity at CB2 (cAMP accumulation) (hCB2 receptor [3]): agonist activity was confirmed; Ki (human recombinant CB1R): 920 ± 1150 nM |
| CCCCCCC(C)(C)c1cc(OC)cc(Oc2nc3ccccc3n2Cc2ccccc2)c1 [Compound 25, 1-benzyl-2-(3-methoxy-5-(2-methyloctan-2-yl)phenoxy)-1H-benzo[d]imidazole] | 33% | – | – |
| c1ccc(Cn2c(OC34CC5CC(CC(C5)C3)C4)nc3ccccc32)cc1 [Compound 16, 2-(adamantan-1-yloxy)-1-benzyl-1H-benzo[d]imidazole] | > 80% | 86% | Ki (hCB2 receptor [2]): 630 ± 190 nM; EC50 (hCB2 receptor [3]): 20 nM; agonist activity at CB2 (cAMP accumulation) (hCB2 receptor [3]): agonist activity was confirmed; Ki (human recombinant CB1R): > 10000 nM |
| CC(C)=CCC/C(C)=C/CSc1nc2ccccc2n1Cc1cccc2ccccc12 [Compound 7, (E)-2-((3,7-dimethylocta-2,6-dien-1-yl)thio)-1-(naphthalen-1-ylmethyl)-1H-benzo[d]imidazole] | 42% | – | – |
| CC1CCC(C(C)C)C(Sc2nc3ccccc3n2Cc2cccc3ccccc23)C1 (stereo not shown) [Compound 1, 2-((2-isopropyl-5-methylcyclohexyl)thio)-1-(naphthalen-1-ylmethyl)-1H-benzo[d]imidazole] | 2% | – | – |
| CC1CCC(C(C)C)C(Oc2nc3ccccc3n2Cc2cccc3ccccc23)C1 (stereo not shown) [Compound 4, 2-((2-isopropyl-5-methylcyclohexyl)oxy)-1-(naphthalen-1-ylmethyl)-1H-benzo[d]imidazole] | 37% | – | – |
| CCn1c(SC/C=C(\C)CCC=C(C)C)nc2ccccc21 [Compound 9, (E)-2-((3,7-dimethylocta-2,6-dien-1-yl)thio)-1-ethyl-1H-benzo[d]imidazole] | 54% | – | – |
| CCCCCCC(C)(C)c1cc(OC)cc(Oc2nc3ccccc3n2CC)c1 [Compound 26, 1-ethyl-2-(3-methoxy-5-(2-methyloctan-2-yl)phenoxy)-1H-benzo[d]imidazole] | 49% | – | – |

Second part, led by results:

| inhibition at 10 µM (hCB2 receptor [1]) | Inhibition (%) of [3H]WIN55212-2 specific binding (hCB2 receptor [1]) | Structure (SMILES) | other results |
| --- | --- | --- | --- |
| – | 46% | COc1ccc(CSc2nc3ccccc3n2Cc2cccc3ccccc23)cc1 [Compound 18, 2-((4-methoxybenzyl)thio)-1-(naphthalen-1-ylmethyl)-1H-benzo[d]imidazole] | – |
| 54% | – | CCn1c(Oc2cccc(OC)c2)nc2ccccc21 [Compound 23, 1-ethyl-2-(3-methoxyphenoxy)-1H-benzo[d]imidazole] | – |
| 30% | – | c1ccc2c(Cn3c(SC45CC6CC(CC(C6)C4)C5)nc4ccccc43)cccc2c1 [Compound 13, 2-(adamantan-1-ylthio)-1-(naphthalen-1-ylmethyl)-1H-benzo[d]imidazole] | – |
| – | −3% | CCn1c(OC/C=C(\C)CCC=C(C)C)nc2ccccc21 [Compound 12, (E)-2-((3,7-dimethylocta-2,6-dien-1-yl)oxy)-1-ethyl-1H-benzo[d]imidazole] | – |
| – | 40% | CC(C)=CCC/C(C)=C/COc1nc2ccccc2n1Cc1cccc2ccccc12 [Compound 10, (E)-2-((3,7-dimethylocta-2,6-dien-1-yl)oxy)-1-(naphthalen-1-ylmethyl)-1H-benzo[d]imidazole] | – |
| > 80% | 84% | COc1cccc(Oc2nc3ccccc3n2Cc2ccccc2)c1 [Compound 22, 1-benzyl-2-(3-methoxyphenoxy)-1H-benzo[d]imidazole] | Ki (hCB2 receptor [2]; [4]): 600 ± 520 nM; Ki (CB1)/Ki (CB2) (hCB2 receptor [2]): 3.4; agonist activity at CB2 (cAMP accumulation) (hCB2 receptor [3]): agonist activity was confirmed; Ki (human recombinant CB1R; [5]): 2040 ± 1220 nM |
| – | 61% | CCn1c(OC23CC4CC(CC(C4)C2)C3)nc2ccccc21 [Compound 17, 2-(adamantan-1-yloxy)-1-ethyl-1H-benzo[d]imidazole] | – |
| – | 62% | COc1cccc(Oc2nc3ccccc3n2Cc2cccc3ccccc23)c1 [Compound 21, 2-(3-methoxyphenoxy)-1-(naphthalen-1-ylmethyl)-1H-benzo[d]imidazole] | – |
| – | 63% | CCn1c(SC23CC4CC(CC(C4)C2)C3)nc2ccccc21 [Compound 15, 2-(adamantan-1-ylthio)-1-ethyl-1H-benzo[d]imidazole] | – |
| 35% | – | CC(C)=CCC/C(C)=C/COc1nc2ccccc2n1Cc1ccccc1 [Compound 11, (E)-1-benzyl-2-((3,7-dimethylocta-2,6-dien-1-yl)oxy)-1H-benzo[d]imidazole] | – |
| 63% | – | CCn1c(SCc2ccc(OC)cc2)nc2ccccc21 [Compound 20, 1-ethyl-2-((4-methoxybenzyl)thio)-1H-benzo[d]imidazole] | – |
| – | 69% | c1ccc(Cn2c(SC34CC5CC(CC(C5)C3)C4)nc3ccccc32)cc1 [Compound 14, 2-(adamantan-1-ylthio)-1-benzyl-1H-benzo[d]imidazole] | – |
| > 80% | 88% | COc1ccc(CSc2nc3ccccc3n2Cc2ccccc2)cc1 [Compound 19, 1-benzyl-2-((4-methoxybenzyl)thio)-1H-benzo[d]imidazole] | Ki (hCB2 receptor [2]; [4]): 930 ± 290 nM; Ki (CB1)/Ki (CB2) (hCB2 receptor [2]): 1.3; agonist activity at CB2 (cAMP accumulation) (hCB2 receptor [3]): agonist activity was confirmed; Ki (human recombinant CB1R; [5]): 1230 ± 880 nM |
